Assay results as given in a compilation of properties of binary mixtures (doi:10.1016/j.jct.2016.06.015).

Assay: xn = mol fraction of the nth substance listed
Conditions: 100 kPa

CC[n+]1ccn(C)c1.F[B-](F)(F)F + OCCO
viscosity [mPa·s]
Conditions | x2 = 0 | x2 = 0.099 | x2 = 0.2174 | x2 = 0.283 | x2 = 0.4435 | x2 = 0.5237 | x2 = 0.5876 | x2 = 0.6954 | x2 = 0.7916 | x2 = 0.8751
293.15 K | 50.5 | 36.8 | 26.8 | 23.4 | 18 | 16.5 | 15.8 | – | 15 | 15.8
298.15 K | 41.5 | 30.7 | 22.6 | – | – | 13.8 | 13.1 | – | 12.3 | 12.9
303.15 K | – | 25.9 | 19.3 | 16.9 | 12.9 | 11.8 | 11.1 | 10.3 | 10.3 | 10.8
313.15 K | 24.8 | 19.1 | 14.3 | 12.7 | – | 8.77 | 8.22 | 7.56 | 7.43 | 7.71
323.15 K | 18.6 | 14.6 | 11.2 | 9.9 | – | 6.81 | – | 5.77 | 5.6 | 5.74
333.15 K | 14.5 | 11.5 | 8.98 | 7.96 | – | – | 5.05 | 4.55 | 4.37 | –
343.15 K | 11.7 | 9.32 | 7.34 | 6.53 | – | 4.47 | – | 3.69 | 3.51 | 3.5
353.15 K | – | 7.69 | 6.12 | 5.47 | 4.21 | 3.75 | – | – | – | 2.85

C1COCCO1 + CC[n+]1ccn(C)c1.F[B-](F)(F)F
x1 = 1
Conditions | viscosity [mPa·s]
293.15 K | 1.29
298.15 K | 1.18
303.15 K | 1.09
313.15 K | 0.934
333.15 K | 0.718
353.15 K | 0.577

CC[n+]1ccn(C)c1.F[B-](F)(F)F + CS(C)=O
viscosity [mPa·s]
Conditions | x2 = 0 | x2 = 0.0872 | x2 = 0.2021 | x2 = 0.2931 | x2 = 0.4098 | x2 = 0.4781 | x2 = 0.5718 | x2 = 0.6689 | x2 = 0.7866 | x2 = 0.8959
293.15 K | 50.5 | 43.1 | 35.1 | 29.5 | 22.8 | – | 14.5 | 10.3 | 6.32 | 3.84
298.15 K | 41.5 | 35.5 | 29.1 | 24.6 | – | 16.1 | 12.3 | 8.84 | 5.55 | 3.43
303.15 K | 34.5 | 29.7 | 24.5 | 20.8 | 16.3 | 13.8 | 10.6 | 7.69 | – | 3.09
313.15 K | – | 21.6 | 18 | – | 12.1 | 10.4 | 8.08 | 5.98 | 3.92 | 2.52
323.15 K | 18.6 | 16.3 | 13.7 | 11.8 | 9.43 | 8.09 | 6.37 | 4.78 | 3.21 | 2.13
333.15 K | 14.5 | 12.8 | 10.8 | 9.36 | 7.53 | 6.5 | 5.15 | 3.91 | 2.68 | 1.83
343.15 K | – | 10.3 | 8.73 | – | 6.16 | 5.33 | 4.24 | 3.24 | 2.28 | –
353.15 K | 9.58 | 8.4 | 7.18 | 6.29 | 5.15 | – | 3.59 | 2.77 | 1.97 | 1.42
